Assays:
HSV polymerase = HSV polymerase (Human herpesvirus 1, UniProt P04293); test: Polymerase scintillation proximity assay (SPA), HSV; assay type: biochemical
HCMV polymerase = target: T1, HCMV polymerase (Human cytomegalovirus, UniProt P08546); test: HCMV polymerase scintillation proximity assay (SPA); assay type: biochemical; conditions: CMV polymerase
T1 construct: made in house; host or cells: recombinant baculovirus-infected SF-9 cells
Experimental: The HCMV polymerase assay is performed using a scintillation proximity assay (SPA) as described in several references, such as N. D. Cook, et al., Pharmaceutical Manufacturing International, pages 49-53 (1992); K. Takeuchi, Laboratory Practice, September issue (1992); U.S. Pat. No. 4,568,649 (1986); which are incorporated by reference herein. Reactions are performed in 96-well plates. The assay is conducted in 100 μl volume with 5.4 mM HEPES (pH 7.5), 11.7 mM KCl, 4.5 mM MgCl2, 0.36 mg/ml BSA, and 90 nM 3H-dTTP. Assays are run with and without CHAPS, (3-[(3-Cholamidopropyl)-dimethylammonio]-1-propane-sulfonate) at a final concentration of 2 mM. HCMV polymerase is diluted in enzyme dilution buffer containing 50% glycerol, 250 mM NaCl, 10 mM HEPES (pH 7.5), 100 μg/ml BSA, and 0.01% sodium azide. The HCMV polymerase, which is expressed in recombinant baculovirus-infected SF-9 cells and purified according to literature procedures, is added at 10% (or 10 μl ) of the final reaction volume, i.e., 100 μl. Compounds are diluted in 50% DMSO and 10 μl are added to each well. Control wells contain an equivalent concentration of DMSO. Unless noted otherwise, reactions are initiated via the addition of 6 nM biotinylated poly(dA)-oligo(dT) template/primer to reaction mixtures containing the enzyme, substrate, and compounds of interest. Plates are incubated in a 25 C or 37 C H20 bath and terminated via the addition of 40 μl/reaction of 0.5 M EDTA (pH 8) per well. Reactions are terminated within the time-frame during which substrate incorporation is linear and varied depending upon the enzyme and conditions used, i.e., 30 min. for HCMV polymerase. Ten μl of streptavidin-SPA beads (20 mg/mil in PBS/10% glycerol) are added following termination of the reaction. Plates are incubated 10 min. at 37 C, then equilibrated to room temperature, and counted on a Packard Topcount. Linear regressions are performed and IC50's are calculated using computer software.
A modified version of the above HCMV polymerase assay is performed as described above, but with the following changes: Compounds are diluted in 100% DMSO until final dilution into assay buffer. In the previous assay, compounds are diluted in 50% DMSO. 4.5 mM dithiotherotol (DTT) is added to the polymerase buffer.

VZV polymerase = VZV polymerase (Varicella-zoster virus, UniProt P09252); test: Polymerase scintillation proximity assay (SPA), VZV; assay type: biochemical
Chain of VZV polymerase (P09252 whole entry): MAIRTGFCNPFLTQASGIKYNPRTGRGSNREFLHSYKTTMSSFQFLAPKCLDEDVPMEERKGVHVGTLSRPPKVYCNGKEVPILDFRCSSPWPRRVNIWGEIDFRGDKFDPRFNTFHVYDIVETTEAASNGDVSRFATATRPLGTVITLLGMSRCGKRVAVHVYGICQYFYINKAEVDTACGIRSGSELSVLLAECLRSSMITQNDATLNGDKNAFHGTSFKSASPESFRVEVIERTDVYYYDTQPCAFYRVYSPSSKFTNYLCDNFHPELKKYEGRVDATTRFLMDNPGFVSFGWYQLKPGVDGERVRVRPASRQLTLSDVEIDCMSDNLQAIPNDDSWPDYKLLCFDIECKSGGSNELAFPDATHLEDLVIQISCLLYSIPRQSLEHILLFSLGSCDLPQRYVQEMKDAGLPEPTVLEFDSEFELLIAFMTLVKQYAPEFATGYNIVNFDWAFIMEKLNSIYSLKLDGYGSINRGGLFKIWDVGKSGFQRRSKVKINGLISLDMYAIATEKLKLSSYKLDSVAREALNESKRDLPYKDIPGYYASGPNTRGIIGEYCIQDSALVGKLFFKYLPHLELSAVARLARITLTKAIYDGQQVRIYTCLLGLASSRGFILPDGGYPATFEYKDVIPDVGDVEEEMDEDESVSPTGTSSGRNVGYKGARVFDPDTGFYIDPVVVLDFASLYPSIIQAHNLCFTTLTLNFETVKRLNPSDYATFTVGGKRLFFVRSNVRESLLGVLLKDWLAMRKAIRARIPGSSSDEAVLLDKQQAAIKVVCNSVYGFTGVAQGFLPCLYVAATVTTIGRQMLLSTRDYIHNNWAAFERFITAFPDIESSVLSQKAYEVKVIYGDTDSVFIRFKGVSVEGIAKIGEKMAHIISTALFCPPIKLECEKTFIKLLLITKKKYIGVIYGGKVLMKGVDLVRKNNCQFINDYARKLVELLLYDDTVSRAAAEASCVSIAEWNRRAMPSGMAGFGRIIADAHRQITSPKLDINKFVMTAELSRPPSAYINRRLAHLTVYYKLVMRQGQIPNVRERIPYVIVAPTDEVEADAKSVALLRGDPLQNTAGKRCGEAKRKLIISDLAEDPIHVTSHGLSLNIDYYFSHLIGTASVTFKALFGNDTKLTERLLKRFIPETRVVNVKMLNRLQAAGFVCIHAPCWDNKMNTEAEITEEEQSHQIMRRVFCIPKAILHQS

Chain of HSV polymerase (P04293 whole entry): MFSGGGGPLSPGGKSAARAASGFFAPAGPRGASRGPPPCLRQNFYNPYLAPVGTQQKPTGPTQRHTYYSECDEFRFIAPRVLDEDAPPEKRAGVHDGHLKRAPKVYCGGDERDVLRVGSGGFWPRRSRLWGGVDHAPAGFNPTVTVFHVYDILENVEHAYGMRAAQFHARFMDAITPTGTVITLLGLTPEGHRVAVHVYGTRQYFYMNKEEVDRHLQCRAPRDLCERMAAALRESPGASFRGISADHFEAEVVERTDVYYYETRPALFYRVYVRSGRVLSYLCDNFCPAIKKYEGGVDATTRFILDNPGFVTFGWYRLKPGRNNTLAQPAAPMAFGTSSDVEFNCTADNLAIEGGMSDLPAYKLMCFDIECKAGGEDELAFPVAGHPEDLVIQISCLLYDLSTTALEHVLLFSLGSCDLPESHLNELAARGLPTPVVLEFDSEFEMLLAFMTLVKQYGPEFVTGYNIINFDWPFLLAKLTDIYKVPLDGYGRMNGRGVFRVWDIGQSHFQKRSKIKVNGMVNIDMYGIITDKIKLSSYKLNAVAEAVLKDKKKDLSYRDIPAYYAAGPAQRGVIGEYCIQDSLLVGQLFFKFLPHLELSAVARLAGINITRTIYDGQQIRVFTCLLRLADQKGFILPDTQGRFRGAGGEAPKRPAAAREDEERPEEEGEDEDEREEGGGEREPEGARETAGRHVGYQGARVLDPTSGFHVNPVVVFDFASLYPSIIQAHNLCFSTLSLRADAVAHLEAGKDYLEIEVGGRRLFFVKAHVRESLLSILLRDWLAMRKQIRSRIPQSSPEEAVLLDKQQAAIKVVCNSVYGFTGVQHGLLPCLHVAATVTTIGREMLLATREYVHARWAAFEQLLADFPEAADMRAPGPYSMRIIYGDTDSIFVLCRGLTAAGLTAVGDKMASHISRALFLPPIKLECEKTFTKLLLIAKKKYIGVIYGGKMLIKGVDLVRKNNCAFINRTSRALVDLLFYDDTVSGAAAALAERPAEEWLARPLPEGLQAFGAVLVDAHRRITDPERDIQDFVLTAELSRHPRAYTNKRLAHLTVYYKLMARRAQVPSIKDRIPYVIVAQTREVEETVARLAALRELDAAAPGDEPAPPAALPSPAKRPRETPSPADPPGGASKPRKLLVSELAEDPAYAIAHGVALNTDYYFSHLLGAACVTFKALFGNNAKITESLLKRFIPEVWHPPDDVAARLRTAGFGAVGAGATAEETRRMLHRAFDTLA
T1 sequence (P08546 whole entry): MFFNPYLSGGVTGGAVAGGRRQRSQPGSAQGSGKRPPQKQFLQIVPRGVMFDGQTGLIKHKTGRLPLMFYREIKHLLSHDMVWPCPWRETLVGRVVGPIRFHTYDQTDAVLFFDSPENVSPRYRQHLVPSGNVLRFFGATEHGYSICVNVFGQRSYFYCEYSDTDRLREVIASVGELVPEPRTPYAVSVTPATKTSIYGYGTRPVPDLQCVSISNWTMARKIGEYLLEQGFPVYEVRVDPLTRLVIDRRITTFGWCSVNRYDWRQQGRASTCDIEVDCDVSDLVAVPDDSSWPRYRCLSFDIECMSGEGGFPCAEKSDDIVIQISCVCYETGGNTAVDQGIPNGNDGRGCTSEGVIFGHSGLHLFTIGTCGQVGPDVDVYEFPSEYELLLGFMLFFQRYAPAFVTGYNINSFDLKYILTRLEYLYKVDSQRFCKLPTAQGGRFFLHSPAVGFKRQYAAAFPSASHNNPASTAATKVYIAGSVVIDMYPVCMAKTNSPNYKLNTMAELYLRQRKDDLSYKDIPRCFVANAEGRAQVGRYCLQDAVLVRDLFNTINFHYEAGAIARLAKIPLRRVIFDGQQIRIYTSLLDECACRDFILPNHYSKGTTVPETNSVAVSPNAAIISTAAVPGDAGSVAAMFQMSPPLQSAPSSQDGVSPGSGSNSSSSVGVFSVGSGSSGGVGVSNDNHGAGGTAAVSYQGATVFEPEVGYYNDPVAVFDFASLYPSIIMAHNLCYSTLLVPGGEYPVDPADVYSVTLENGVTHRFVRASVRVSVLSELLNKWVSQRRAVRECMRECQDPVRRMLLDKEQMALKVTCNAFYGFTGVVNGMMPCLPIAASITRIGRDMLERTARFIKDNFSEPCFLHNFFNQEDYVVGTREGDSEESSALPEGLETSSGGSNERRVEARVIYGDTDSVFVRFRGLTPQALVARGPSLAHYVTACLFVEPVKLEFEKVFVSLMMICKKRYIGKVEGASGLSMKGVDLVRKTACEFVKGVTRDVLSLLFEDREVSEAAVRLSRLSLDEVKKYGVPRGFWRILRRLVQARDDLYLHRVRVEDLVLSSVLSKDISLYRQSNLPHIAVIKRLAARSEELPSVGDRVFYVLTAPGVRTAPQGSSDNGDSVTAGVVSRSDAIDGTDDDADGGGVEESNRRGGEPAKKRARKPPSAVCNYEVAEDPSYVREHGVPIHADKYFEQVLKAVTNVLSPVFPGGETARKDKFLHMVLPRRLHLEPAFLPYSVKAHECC

Structure (SMILES) | IC50 (HSV polymerase) | IC50 (HCMV polymerase) | melting point | IC50 (VZV polymerase)
C[C@H](O)C#Cc1cc(CN2CCOCC2)cc2c(=O)c(C(=O)NCc3ccc(Cl)cc3)cn(C)c12 [Example 7, N-(4-chlorobenzyl)-8-[(3S)-3-hydroxy-1-butynyl]-1-methyl-6-(4-morpholinylmethyl)-4-oxo-1,4-dihydro-3-quinolinecarboxamide] | 0.45 µM | 0.76 µM | 158 to 161 °C | 0.18 µM
C[C@@H](O)C#Cc1cc(CN2CCOCC2)cc2c(=O)c(C(=O)NCc3ccc(Cl)cc3)cn(C)c12 [Example 8, N-(4-chlorobenzyl)-8-[(3R)-3-hydroxy-1-butynyl]-1-methyl-6-(4-morpholinylmethyl)-4-oxo-1,4-dihydro-3-quinolinecarboxamide] | 1 µM | 0.87 µM | 147 to 150 °C | 0.48 µM
Cn1cc(C(=O)NCc2ccc(Cl)cc2)c(=O)c2cc(CN3CCOCC3)cc(C#CCCCO)c21 [Example 10, N-(4-chlorobenzyl)-8-(5-hydroxy-1-pentynyl)-1-methyl-6-(4-morpholinylmethyl)-4-oxo-1,4-dihydro-3-quinolinecarboxamide] | 0.41 µM | 0.48 µM | 179 to 182 °C | 0.16 µM
Cn1cc(C(=O)NCc2ccc(Cl)cc2)c(=O)c2cc(CN3CCOCC3)cc(C#CCn3cnc(Cl)c3Cl)c21 [Example 13, N-(4-chlorobenzyl)-8-[3-(4,5-dichloro-1H-imidazol-1-yl)prop-1-ynyl]-1-methyl-6-(morpholin-4-ylmethyl)-4-oxo-1,4-dihydroquinoline-3-carboxamide] | 0.49 µM | 0.5 µM | 178 to 181 °C | 0.25 µM
Cn1cc(C(=O)NCc2ccc(Cl)cc2)c(=O)c2cc(CN3CCOCC3)cc(C#Cc3cccnc3)c21 [Example 16, N-(4-chlorobenzyl)-1-methyl-6-(morpholin-4-ylmethyl)-4-oxo-8-(pyridin-3-ylethynyl)-1,4-dihydroquinoline-3-carboxamide] | 0.28 µM | 0.47 µM | 195 to 197 °C | 0.15 µM

Results, then the molecule that gave them:

IC50 (HSV polymerase) | IC50 (HCMV polymerase) | melting point | IC50 (VZV polymerase) | Structure (SMILES)
0.28 µM | 0.36 µM | 220 to 222 °C | 0.18 µM | Cn1cc(C(=O)NCc2ccc(Cl)cc2)c(=O)c2cc(CN3CCOCC3)cc(C#CCN3CCS(=O)(=O)CC3)c21 [Example 11, N-(4-chlorobenzyl)-8-[3-(1,1-dioxido-4-thiomorpholinyl)-1-propynyl]-1-methyl-6-(4-morpholinylmethyl)-4-oxo-1,4-dihydro-3-quinolinecarboxamide]
0.26 µM | 0.32 µM | 234 to 236 °C | 0.14 µM | Cn1cc(C(=O)NCc2ccc(Cl)cc2)c(=O)c2cc(CN3CCOCC3)cc(C#Cc3ccccn3)c21 [Example 15, N-(4-chlorobenzyl)-1-methyl-6-(morpholin-4-ylmethyl)-4-oxo-8-(pyridin-2-ylethynyl)-1,4-dihydroquinoline-3-carboxamide]
0.21 µM | 0.42 µM | 200 to 202 °C | 0.11 µM | Cn1cc(C(=O)NCc2ccc(Cl)cc2)c(=O)c2cc(CN3CCOCC3)cc(C#Cc3ccncc3)c21 [Example 17, N-(4-chlorobenzyl)-1-methyl-6-(morpholin-4-ylmethyl)-4-oxo-8-(pyridin-4-ylethynyl)-1,4-dihydroquinoline-3-carboxamide]
0.22 µM | 0.33 µM | 178 to 180 °C | 0.1 µM | Cn1cc(C(=O)NCc2ccc(Cl)cc2)c(=O)c2cc(CN3CCOCC3)cc(C#CCn3ccnc3)c21 [Example 23, N-(4-chlorobenzyl)-8-[3-(1 H-imidazol-1-yl)prop-1-ynyl]-1-methyl-6-(morpholin-4-ylmethyl)-4-oxo-1,4-dihydroquinoline-3-carboxamide]

Source: patent US6544990B2, “Substituted quinolinecarboxamides as antiviral agents” (Pharmacia & Upjohn Company, priority 2001, dated 2003)
